# Experimental data published in ChEMBL document CHEMBL4020828, “Design and Syntheses of Highly Potent Teixobactin Analogues against Staphylococcus aureus, Methicillin-Resistant Staphylococcus aureus (MRSA), and Vancomycin-Resistant Enterococci (VRE) in Vitro and in Vivo” (J Med Chem, 2018).
# Positions of bridges follow the written chain, without caps; N, C: chain ends. Non-standard residues stand in square brackets, D forms with d. Residues, ends and D or L forms follow the SMILES beside them. dNMeF = CN[C@H](Cc1ccccc1)C(=O)O
# Legend:
# Staphylococcus aureus [1] = test: Antibacterial activity against methicillin-resistant Staphylococcus aureus after 24 hrs; assay type: functional
# Staphylococcus aureus [2] = test: Antibacterial activity against methicillin-resistant Staphylococcus aureus ATCC 33591 after 24 hrs; assay type: functional; conditions: ATCC 33591, 24 h
# [3] = tested on: Staphylococcus saprophyticus; test: Antibacterial activity against Staphylococcus saprophyticus ATCC BAA 750 after 24 hrs; assay type: functional; conditions: ATCC BAA 750, 24 h
# [4] = tested on: Staphylococcus saprophyticus; test: Antibacterial activity against Staphylococcus saprophyticus ATCC 15305 after 24 hrs; assay type: functional; conditions: ATCC 15305, 24 h
# [5] = tested on: Staphylococcus saprophyticus; test: Antibacterial activity against Staphylococcus saprophyticus ATCC 49453 after 24 hrs; assay type: functional; conditions: ATCC 49453, 24 h
# [6] = tested on: Staphylococcus saprophyticus; test: Antibacterial activity against Staphylococcus saprophyticus ATCC 49907 after 24 hrs; assay type: functional; conditions: ATCC 49907, 24 h
# Enterococcus faecalis [7] = test: Antibacterial activity against vancomycin-resistant Enterococcus faecalis isolate 1001 after 24 hrs; assay type: functional; conditions: isolate 1001, 24 h
# Enterococcus faecalis [8] = test: Antibacterial activity against vancomycin-resistant Enterococcus faecalis isolate 1002 after 24 hrs; assay type: functional; conditions: isolate 1002, 24 h
# Enterococcus faecalis [9] = test: Antibacterial activity against vancomycin-resistant Enterococcus faecalis isolate 1004 after 24 hrs; assay type: functional; conditions: isolate 1004, 24 h
# Enterococcus faecalis [10] = test: Antibacterial activity against vancomycin-resistant Enterococcus faecalis isolate 1008 after 24 hrs; assay type: functional; conditions: isolate 1008, 24 h
# Enterococcus faecalis [11] = test: Antibacterial activity against vancomycin-resistant Enterococcus faecalis ATCC 700802 after 24 hrs; assay type: functional; conditions: ATCC 700802, 24 h
# Enterococcus faecalis [12] = test: Antibacterial activity against vancomycin-resistant Enterococcus faecalis ATCC 29212 after 24 hrs; assay type: functional; conditions: ATCC 29212, 24 h
# Staphylococcus aureus [13] = test: Antibacterial activity against methicillin-resistant Staphylococcus aureus ATCC 700699 after 24 hrs; assay type: functional; conditions: ATCC 700699, 24 h
# Staphylococcus aureus [14] = test: Antibacterial activity against methicillin-resistant Staphylococcus aureus isolate 42412 after 24 hrs; assay type: functional; conditions: isolate 42412, 24 h
# Staphylococcus aureus [15] = test: Antibacterial activity against methicillin-resistant Staphylococcus aureus isolate 21455 after 24 hrs; assay type: functional; conditions: isolate 21455, 24 h
# Staphylococcus aureus [16] = test: Antibacterial activity against methicillin-resistant Staphylococcus aureus isolate 1003 after 24 hrs; assay type: functional; conditions: isolate 1003, 24 h
# Staphylococcus aureus [17] = test: Antibacterial activity against Staphylococcus aureus ATCC 29213 after 24 hrs; assay type: functional; conditions: ATCC 29213, 24 h
# Staphylococcus aureus [18] = test: Antibacterial activity against Staphylococcus aureus 4299 after 24 hrs; assay type: functional; conditions: Staphylococcus aureus, 4299, 24 h
# [19] = tested on: Staphylococcus epidermidis; test: Antibacterial activity against Staphylococcus epidermidis 12228 after 24 hrs; assay type: functional; conditions: Staphylococcus epidermidis, 12228, 24 h
# Bacillus cereus = test: Antibacterial activity against Bacillus cereus ATCC 11788 after 24 hrs; assay type: functional; conditions: ATCC 11788, 24 h
# [20] = tested on: Bacillus subtilis (Bacillus subtilis); test: Antibacterial activity against Bacillus subtilis ATCC 6633 after 24 hrs; conditions: ATCC 6633, 24 h
# Staphylococcus aureus [21] = test: Antibacterial activity against methicillin-sensitive Staphylococcus aureus after 24 hrs; assay type: functional
Compound,MIC (Staphylococcus aureus [2]) [µg/mL],MIC [3] [µg/mL],MIC [4] [µg/mL],MIC [5] [µg/mL],MIC [6] [µg/mL],MIC (Enterococcus faecalis [7]) [µg/mL],MIC (Enterococcus faecalis [8]) [µg/mL],MIC (Enterococcus faecalis [9]) [µg/mL],MIC (Enterococcus faecalis [10]) [µg/mL],MIC (Enterococcus faecalis [11]) [µg/mL],MIC (Enterococcus faecalis [12]) [µg/mL],MIC (Staphylococcus aureus [13]) [µg/mL],MIC (Staphylococcus aureus [14]) [µg/mL],MIC (Staphylococcus aureus [15]) [µg/mL],MIC (Staphylococcus aureus [16]) [µg/mL],MIC (Staphylococcus aureus [17]) [µg/mL],MIC (Staphylococcus aureus [18]) [µg/mL],MIC [19] [µg/mL],MIC (Bacillus cereus) [µg/mL],MIC [20] [µg/mL],also measured
CC[C@@H](C)[C@@H](NC(=O)[C@@H](CCC(N)=O)NC(=O)[C@H](CO)NC(=O)[C@@H](NC(=O)[C@@H](Cc1ccccc1)NC)[C@@H](C)CC)C(=O)N[C@H](C(=O)N[C@@H](CO)C(=O)N[C@H]1C(=O)N[C@@H](C)C(=O)N[C@@H](Cc2ccccc2)C(=O)N[C@@H]([C@@H](C)CC)C(=O)O[C@H]1C)[C@@H](C)CC,,,,,,,,,,,,,,,,,,,,,MIC (Staphylococcus aureus [1]): 2 µg/mL
CC[C@@H](C)[C@@H](NC(=O)[C@@H](CCCNC(=N)N)NC(=O)[C@H](CCCNC(=N)N)NC(=O)[C@@H](NC(=O)[C@@H](Cc1ccccc1)NC)[C@@H](C)CC)C(=O)N[C@H](C(=O)N[C@@H](CO)C(=O)N[C@H]1C(=O)N[C@@H](CCCNC(=N)N)C(=O)N[C@@H](CC(C)C)C(=O)N[C@@H]([C@@H](C)CC)C(=O)O[C@H]1C)[C@@H](C)CC (H-[dNMeF]IR[dR][dI]IS[dT]RLI; ester 8-C),1,< 0.0625,0.25,< 0.0625,< 0.0625,2,8,4,8,4,4,2,2,2,2,1,1,< 0.0625,1,< 0.0625,
CC[C@@H](C)[C@@H](NC(=O)[C@@H](CCC(N)=O)NC(=O)[C@H](CO)NC(=O)[C@@H](NC(=O)[C@@H](Cc1ccccc1)NC)[C@@H](C)CC)C(=O)N[C@H](C(=O)N[C@@H](CO)C(=O)N[C@H]1C(=O)N[C@@H](CCCNC(=N)N)C(=O)N[C@@H](CC(C)C)C(=O)N[C@@H]([C@@H](C)CC)C(=O)O[C@H]1C)[C@@H](C)CC (H-[dNMeF]IS[dQ][dI]IS[dT]RLI; ester 8-C),0.125,< 0.0625,< 0.0625,< 0.0625,< 0.0625,0.5,1,0.25,0.25,0.5,1,0.5,< 0.0625,0.25,0.25,0.5,0.25,< 0.0625,0.25,< 0.0625,
CC[C@@H](C)[C@@H](NC(=O)[C@@H](CCCNC(=N)N)NC(=O)[C@H](CO)NC(=O)[C@@H](NC(=O)[C@@H](Cc1ccccc1)NC)[C@@H](C)CC)C(=O)N[C@H](C(=O)N[C@@H](CO)C(=O)N[C@H]1C(=O)N[C@@H](C)C(=O)N[C@@H]([C@@H](C)CC)C(=O)N[C@@H]([C@@H](C)CC)C(=O)O[C@H]1C)[C@@H](C)CC,0.125,< 0.0625,< 0.0625,< 0.0625,< 0.0625,0.5,1,0.5,0.5,0.25,0.25,0.25,< 0.0625,0.0312,< 0.0625,0.0625,< 0.0625,< 0.0625,< 0.0625,< 0.0625,
CC[C@@H](C)[C@@H](NC(=O)[C@@H](CCC(N)=O)NC(=O)[C@H](CO)NC(=O)[C@@H](NC(=O)[C@@H](Cc1ccccc1)NC)[C@@H](C)CC)C(=O)N[C@H](C(=O)N[C@@H](CO)C(=O)N[C@H]1C(=O)N[C@@H](C)C(=O)N[C@@H](C)C(=O)N[C@@H]([C@@H](C)CC)C(=O)O[C@H]1C)[C@@H](C)CC,,,,,,,,,,,,,,,,,,,,,MIC (Staphylococcus aureus [21]): 1 µg/mL; MIC (Staphylococcus aureus [1]): 1 to 2 µg/mL
